Results reported in ChEMBL document CHEMBL4765421, “Synthesis of natural 3'-Prenylchalconaringenin and biological evaluation of ameliorating non-alcoholic fatty liver disease and metabolic syndrome” (Eur J Med Chem, 2020).
Calls of active or inactive are those of the source. The calls are words filed in the database; no cut-off is given here.

Tests used:
HepG2 [1] = assay: Hypolipidemic activity in oleic, palmitic, linoleic and arachidonic acid 29:47:18:6 (v/v)-induced hyperlipidemia in human HepG2 cells assessed as reduction in lipid content at 10 uM by Oil Red O staining based assay relative to control; format: functional; parameters: scale not given: the % may be the effect or the level left
3T3-L1 [2] = assay: Hypolipidemic activity in mouse 3T3-L1 preadipocytes assessed as reduction in lipid content at 10 uM by Oil Red O staining based assay relative to control; format: functional; parameters: scale not given: the % may be the effect or the level left
3T3-L1 [3] = assay: Hypolipidemic activity in mouse 3T3-L1 mature adipocytes assessed as reduction in lipid content at 10 uM by Oil Red O staining based assay relative to control; format: functional; parameters: scale not given: the % may be the effect or the level left
Mus musculus [4] = assay: In vivo effect on PPAR signaling in tyloxapol-induced Kunming mouse model of hyperlipidemia assessed as decrease in PPARgamma expression in white adipose tissue at 100 mg/kg, po measured after 24 hrs by Western blot analysis; format: functional, organism-based
Mus musculus [5] = assay: Hypolipidemic activity in tyloxapol-induced Kunming mouse model of hyperlipidemia assessed as reduction in serum triglyceride level at 100 mg/kg, po measured after 24 hrs; format: functional, organism-based
Mus musculus [6] = assay: Hypolipidemic activity in tyloxapol-induced Kunming mouse model of hyperlipidemia assessed as spleen index at 100 mg/kg, po measured after 24 hrs (reference value: 3.87 +/- 0.05); format: functional
Mus musculus [7] = assay: Hypolipidemic activity in tyloxapol-induced Kunming mouse model of hyperlipidemia assessed as reduction in fatty liver phenotype at 100 mg/kg, po measured after 24 hrs; format: functional, organism-based
Mus musculus [8] = assay: In vivo effect on PPAR signaling in tyloxapol-induced Kunming mouse model of hyperlipidemia assessed as increase in PPARbeta expression in liver at 100 mg/kg, po measured after 24 hrs by Western blot analysis; format: functional, organism-based
Mus musculus [9] = assay: Hypolipidemic activity in tyloxapol-induced Kunming mouse model of hyperlipidemia assessed as epididymis white adipose tissue index at 100 mg/kg, po measured after 24 hrs (reference value: 23.43 +/- 3.10); format: functional
Mus musculus [10] = assay: In vivo induction of AMPK in tyloxapol-induced Kunming mouse model of hyperlipidemia assessed as decrease in SREBP1-C expression in liver at 100 mg/kg, po measured after 24 hrs by Western blot analysis; format: functional, organism-based
Mus musculus [11] = assay: In vivo effect on PPAR signaling in tyloxapol-induced Kunming mouse model of hyperlipidemia assessed as increase in PPARalpha expression in liver at 100 mg/kg, po measured after 24 hrs by Western blot analysis; format: functional, organism-based
Mus musculus [12] = assay: Hypolipidemic activity in tyloxapol-induced Kunming mouse model of hyperlipidemia assessed as reduction in serum AST level at 100 mg/kg, po measured after 24 hrs; format: functional, organism-based
Mus musculus [13] = assay: Hypolipidemic activity in tyloxapol-induced Kunming mouse model of hyperlipidemia assessed as reduction in serum IL6 level at 100 mg/kg, po measured after 24 hrs; format: functional, organism-based
Mus musculus [14] = assay: Hypolipidemic activity in tyloxapol-induced Kunming mouse model of hyperlipidemia assessed as increase in appearance of hepatic lobules at 100 mg/kg, po measured after 24 hrs by Oil Red O staining based assay; format: functional, organism-based
HepG2 [15] = assay: Activation of AMPK in oleic, palmitic, linoleic and arachidonic acid 29:47:18:6 (v/v)-induced human HepG2 cells assessed as increase in AMPK phosphorylation by Western blot; details: filed as activator
Mus musculus [16] = assay: In vivo effect on PPAR signaling in tyloxapol-induced Kunming mouse model of hyperlipidemia assessed as decrease in PPARgamma expression in liver at 100 mg/kg, po measured after 24 hrs by Western blot analysis; format: functional, organism-based
Mus musculus [17] = assay: Hypolipidemic activity in tyloxapol-induced Kunming mouse model of hyperlipidemia assessed as reduction in serum ALT level at 100 mg/kg, po measured after 24 hrs; format: functional, organism-based
Mus musculus [18] = assay: In vivo effect on PPAR signaling in tyloxapol-induced Kunming mouse model of hyperlipidemia assessed as increase in mTOR phosphorylation in liver at 100 mg/kg, po measured after 24 hrs by Western blot analysis; format: functional, organism-based
Mus musculus [19] = assay: In vivo effect on PPAR signaling in tyloxapol-induced Kunming mouse model of hyperlipidemia assessed as decrease in PPARbeta expression in white adipose tissue at 100 mg/kg, po measured after 24 hrs by Western blot analysis; format: functional, organism-based
Mus musculus [20] = assay: Hypolipidemic activity in tyloxapol-induced Kunming mouse model of hyperlipidemia assessed as liver index at 100 mg/kg, po measured after 24 hrs (reference value: 65.00 +/- 0.87); format: functional
Mus musculus [21] = assay: In vivo effect on PPAR signaling in tyloxapol-induced Kunming mouse model of hyperlipidemia assessed as increase in mTOR phosphorylation in white adipose tissue at 100 mg/kg, po measured after 24 hrs by Western blot analysis; format: functional, organism-based
Mus musculus [22] = assay: In vivo induction of AMPK in tyloxapol-induced Kunming mouse model of hyperlipidemia assessed as increase in ACC phosphorylation in white adipose tissue at 100 mg/kg, po measured after 24 hrs by Western blot analysis; format: functional, organism-based
Mus musculus [23] = assay: In vivo induction of AMPK in tyloxapol-induced Kunming mouse model of hyperlipidemia assessed as decrease in FAS expression in liver at 100 mg/kg, po measured after 24 hrs by Western blot analysis; format: functional, organism-based
Mus musculus [24] = assay: In vivo induction of AMPK in tyloxapol-induced Kunming mouse model of hyperlipidemia assessed as increase in AMPKalpha phosphorylation in white adipose tissue at 100 mg/kg, po measured after 24 hrs by Western blot analysis; format: functional, organism-based
Mus musculus [25] = assay: Hypolipidemic activity in tyloxapol-induced Kunming mouse model of hyperlipidemia assessed as reduction in lipid level in liver at 100 mg/kg, po measured after 24 hrs by Oil Red O staining based assay; format: functional, organism-based
Mus musculus [26] = assay: In vivo induction of AMPK in tyloxapol-induced Kunming mouse model of hyperlipidemia assessed as decrease in SREBP1-C expression in white adipose tissue at 100 mg/kg, po measured after 24 hrs by Western blot analysis; format: functional, organism-based
Mus musculus [27] = assay: In vivo induction of AMPK in tyloxapol-induced Kunming mouse model of hyperlipidemia assessed as increase in AMPKalpha phosphorylation in liver at 100 mg/kg, po measured after 24 hrs by Western blot analysis; format: functional, organism-based
Mus musculus [28] = assay: In vivo induction of AMPK in tyloxapol-induced Kunming mouse model of hyperlipidemia assessed as increase in AKT phosphorylation in liver at 100 mg/kg, po measured after 24 hrs by Western blot analysis; format: functional, organism-based
Mus musculus [29] = assay: In vivo induction of AMPK in tyloxapol-induced Kunming mouse model of hyperlipidemia assessed as decrease in FAS expression in white adipose tissue at 100 mg/kg, po measured after 24 hrs by Western blot analysis; format: functional, organism-based
Mus musculus [30] = assay: In vivo induction of AMPK in tyloxapol-induced Kunming mouse model of hyperlipidemia assessed as increase in CPT-1A phosphorylation in liver at 100 mg/kg, po measured after 24 hrs by Western blot analysis; format: functional, organism-based
Mus musculus [31] = assay: In vivo effect on PPAR signaling in tyloxapol-induced Kunming mouse model of hyperlipidemia assessed as increase in PPARalpha expression in white adipose tissue at 100 mg/kg, po measured after 24 hrs by Western blot analysis; format: functional, organism-based
Mus musculus [32] = assay: Hypolipidemic activity in tyloxapol-induced Kunming mouse model of hyperlipidemia assessed as reduction in serum total cholesterol level at 100 mg/kg, po measured after 24 hrs; format: functional, organism-based
HepG2 [33] = assay: Activation of AMPK in oleic, palmitic, linoleic and arachidonic acid 29:47:18:6 (v/v)-induced human HepG2 cells assessed as increase in ACC phosphorylation by Western blot; details: filed as activator
Mus musculus [34] = assay: Hypolipidemic activity in tyloxapol-induced Kunming mouse model of hyperlipidemia assessed as kidney index at 100 mg/kg, po measured after 24 hrs (reference value: 11.20 +/- 0.58); format: functional
Mus musculus [35] = assay: In vivo induction of AMPK in tyloxapol-induced Kunming mouse model of hyperlipidemia assessed as increase in ACC phosphorylation in liver at 100 mg/kg, po measured after 24 hrs by Western blot analysis; format: functional, organism-based
Mus musculus [36] = assay: In vivo induction of AMPK in tyloxapol-induced Kunming mouse model of hyperlipidemia assessed as increase in CPT-1A phosphorylation in white adipose tissue at 100 mg/kg, po measured after 24 hrs by Western blot analysis; format: functional, organism-based
Mus musculus [37] = assay: Hypolipidemic activity in tyloxapol-induced Kunming mouse model of hyperlipidemia assessed as perirenal white adipose tissue index at 100 mg/kg, po measured after 24 hrs (reference value: 18.14 +/- 1.44); format: functional
Mus musculus [38] = assay: In vivo induction of AMPK in tyloxapol-induced Kunming mouse model of hyperlipidemia assessed as increase in AKT phosphorylation in white adipose tissue at 100 mg/kg, po measured after 24 hrs by Western blot analysis; format: functional, organism-based
Mus musculus [39] = assay: Hypolipidemic activity in tyloxapol-induced Kunming mouse model of hyperlipidemia assessed as reduction in serum LDL level at 100 mg/kg, po measured after 24 hrs; format: functional, organism-based
HepG2 [40] = assay: Cytotoxicity against human HepG2 cells assessed as reduction in cell viability at 10 to 20 uM by MTT assay; format: cell-based; details: hepg2, 20 µM, dose 10-20 µM

Compound	Activity (Mus musculus [4])	Activity (Mus musculus [5])	Activity_index (Mus musculus [6])	Activity (Mus musculus [7])	Activity (Mus musculus [8])	Activity_index (Mus musculus [9])	Activity (Mus musculus [10])	Activity (Mus musculus [11])	Activity (Mus musculus [12])	Activity (Mus musculus [13])	Activity (Mus musculus [14])	Activity (Mus musculus [16])	Activity (Mus musculus [17])	Activity (Mus musculus [18])	Activity (Mus musculus [19])	Activity_index (Mus musculus [20])	Activity (Mus musculus [21])	Activity (Mus musculus [22])	Activity (Mus musculus [23])	Activity (Mus musculus [24])	also measured
CC[C@H](C)C(=O)O[C@H]1C[C@@H](C)C=C2C=C[C@H](C)[C@H](CC[C@@H]3C[C@@H](O)CC(=O)O3)[C@H]21 [LOVASTATIN]	–	–	–	–	–	–	–	–	–	–	–	–	–	–	–	–	–	–	–	–	Activity (HepG2 [1]): 41.17%; Activity (3T3-L1 [2]): 67.14%; Activity (3T3-L1 [3]): 47.2%
NC(=O)c1ncn([C@@H]2O[C@H](CO)[C@@H](O)[C@H]2O)c1N [ACADESINE]	Active	Active	3.01	Active	Active	20.09	Active	Active	Active	Active	Active	Active	Active	Active	Active	57.41	Active	Active	Active	Active	Activity (HepG2 [15]): Active; Activity (Mus musculus [25]): Active; Activity (Mus musculus [26]): Active; Activity (Mus musculus [27]): Active; Activity (Mus musculus [28]): Active; Activity (Mus musculus [29]): Active; Activity (Mus musculus [30]): Active; Activity (Mus musculus [31]): Active; Activity (Mus musculus [32]): Active; Activity (HepG2 [33]): Active; Activity_index (Mus musculus [34]): 8.64; Activity (Mus musculus [35]): Active; Activity (Mus musculus [36]): Active; Activity_index (Mus musculus [37]): 15.94; Activity (Mus musculus [38]): Active; Activity (Mus musculus [39]): Active
O=C(/C=C/c1ccc(O)cc1)c1c(O)cc(O)cc1O [4,2',4',6'-TETRAHYDROXYCHALCONE]	–	–	–	–	–	–	–	–	–	–	–	–	–	–	–	–	–	–	–	–	Activity (HepG2 [40]): Non-Toxic
CC(C)OC(=O)C(C)(C)Oc1ccc(C(=O)c2ccc(Cl)cc2)cc1 [FENOFIBRATE]	Active	Active	2.85	Active	Active	15.43	Active	Active	Active	Active	Active	Active	Active	Active	Active	56.59	Active	Active	Active	Active	Activity (Mus musculus [25]): Active; Activity (Mus musculus [26]): Active; Activity (Mus musculus [27]): Active; Activity (Mus musculus [28]): Active; Activity (Mus musculus [29]): Active; Activity (Mus musculus [30]): Active; Activity (Mus musculus [31]): Active; Activity (Mus musculus [32]): Active; Activity_index (Mus musculus [34]): 9.65; Activity (Mus musculus [35]): Active; Activity (Mus musculus [36]): Active; Activity_index (Mus musculus [37]): 14.55; Activity (Mus musculus [38]): Active; Activity (Mus musculus [39]): Active
CC(C)=CCc1c(O)cc(O)c(C(=O)/C=C/c2ccc(O)cc2)c1O [DEMETHYLXANTHOHUMOL]	–	–	–	–	–	–	–	–	–	–	–	–	–	–	–	–	–	–	–	–	Activity (HepG2 [40]): Non-Toxic
